Data as given in US9169247B2, “Tetrahydro-beta-carboline derivatives, synthesis and use thereof” (Southern Research Institute, priority 2009, dated 2015).
Entries after “also recorded” stand apart in the source; their conditions may differ.

Tested on: human MDA-MB-231 breast tumor cells
Test: cGMP assay (intracellular cGMP, immunoassay)
Assay type: cell-based
Conditions: treated for 30 minutes, FIG. 1
Description: FIG. 1A illustrates the induction of intracellular cGMP levels in cultured human MDA-MB-231 breast tumor cells treated for 30 minutes with compound 2f. […] The + indicates the effects of a positive control, sulindac sulfide tested at 100 μM. The cells were treated for 30 minutes prior to measuring intracellular cGMP levels by immunoassay. The * indicates statistical significance with p<0.05.
Cells were seeded at a density of 1×10^6 cells per 10 cm tissue culture dish, incubated for 48 hours, and treated with the specified compound or vehicle control. After 30 minutes of treatment, cells were lysed and assayed for cGMP content using the cGMP Direct Biotrak EIA kit (GE Biosciences). The assay was performed according to the manufacturer's specifications. Optical density was measured at 630 nm using a Synergy4 (BioTek) plate reader.

SMILES: COC(=O)[C@H]1Cc2c([nH]c3ccccc23)[C@H](c2cc(OC)ccc2OC)N1C(=O)CCl [Compound 2f, Methyl (1S,3R)-1-(2,5-dimethoxyphenyl)-2-(2-chloroacetyl)-2,3,4,9-tetrahydro-1H-β-carboline-3-carboxylate]
- intracellular cGMP levels: induction; also recorded: increase
